Data from article PMC6522510 (Nature Communications, 2019).
Where a name gives a salt, the structure may show the parent alone. Read-outs that look alike come from different tables or passages of the source. Numbered stars: 1 amine (or outer) side, 2 acyl side, 3 side chain; on linkers, the order of the positions; unused ones are H or OH. Square brackets hold non-standard residues; d marks the D form. Peptide text beside a SMILES is read from it. Nle = CCCC[C@H](N)C(=O)O; CO = O=C([*:1])[*:2]

How the values were obtained:
Set-up in all cases: species or system AML cell lines (8); Primary HTS, single concentration about 10 uM, Cell Titer Glo viability; log10 luminescence, per cent inhibition relative to cycloheximide control
Conditions in all cases: 72 h, relative to cycloheximide control, log10 luminescence, inhibitor
MV4-11 = test system: MV4-11
U937 = test system: U937
CHRF288-11 = test system: CHRF288-11
M07e = test system: M07e
CMS = test system: CMS
ML-2 = test system: ML-2
CMK = test system: CMK
MOLM-13 = test system: MOLM-13

Compound	MV4-11 %inh (MV4-11) [%]	U937 %inh (U937) [%]	CHRF288-11 %inh (CHRF288-11) [%]	M07e %inh (M07e) [%]	CMS %inh (CMS) [%]	ML-2 %inh (ML-2) [%]	CMK %inh (CMK) [%]	MOLM-13 %inh (MOLM-13) [%]	MV4-11 %inh (MV4-11; MV4-11 %inh, 10 µM) [%]	U937 %inh (U937; U937 %inh, 10 µM) [%]	CHRF288-11 %inh (CHRF288-11; CHRF288-11 %inh, 10 µM) [%]	M07e %inh (M07e; M07e %inh, 10 µM) [%]	CMS %inh (CMS; CMS %inh, 10 µM) [%]	ML-2 %inh (ML-2; ML-2 %inh, 10 µM) [%]	CMK %inh (CMK; CMK %inh, 10 µM) [%]	MOLM-13 %inh (MOLM-13; MOLM-13 %inh, 10 µM) [%]
CNC(=O)[C@H](Cc1c[nH]c2ccccc12)NC(=O)[C@@H](CC(=O)NO)CC(C)C [SJ000755078-1, GM 6001 | ILOMASTAT (GM6001, GALARDIN)]	1.237	9.818	9.385	-0.3296	-0.9664	-0.512	-1.76	3.013								
CCCCNC(=O)[C@@H]1Cc2ccccc2N1C(=O)[C@@H](N)CC [SJ000772394-1, BUTABINDIDE OXALATE]	-1.569	2.937	-4.064	-2.465	0.61	-0.1457	2.146	0.241								
CC(C)[C@H](NS(=O)(=O)c1ccc(-c2ccc(Br)cc2)cc1)C(=O)O [SJ000772395-1, PD 166793]	-0.00905	3.907	2.843	-2.219	-2.252	-0.8645	1.088	0.2317								
CCCC[C@@H](C=O)NC(=O)[C@H](CC(C)C)NC(=O)[C@H](CC(C)C)NC(C)=O [SJ000772397-1, MG 101 | ALLN] (Ac-Leu-Leu-[Nle]-aldehyde)	82.08	52.66	140.2	121	98.27	57.14	126.5	102.2								
Cc1ccc(/C=C2\CNC/C(=C\c3ccc(C)cc3)C2=O)cc1 [SJ000772404-1, NSC 632839 HYDROCHLORIDE]	77.36	84.59	82.45	129.2	103.5	61.57	116.6	99.63								
N#Cc1ccc(NCCNCC(=O)N2CCC[C@H]2C#N)nc1 [SJ000772405-1, NVP DPP 728 DIHYDROCHLORIDE]	-0.757	-2.969	-4.67	-0.0114	0.6231	-1.409	-0.003306	-0.2952								
O=C(O)Cc1cccc2c(=O)c([N+](=O)[O-])c(-c3ccccc3[N+](=O)[O-])oc12 [SJ000772406-1, AMINOPEPTIDASE N INHIBITOR]	-1.986	-3.753	5.038	-0.1255	-0.7017	1.312	-2.215	-3.246								
CC(C)[C@H](NC(=O)[C@H](CCCNC(=N)N)NC(=O)N[C@@H](Cc1ccccc1)C(=O)O)C(=O)N[C@H](C=O)CCCNC(=N)N [SJ000772410-1, ANTIPAIN, DIHYDROCHLORIDE] ({Phe-CO}-Arg-Val-Arg-aldehyde)	-1.834	-3.748	4.85	-0.5062	2.317	0.8211	-5.865	-3.916								
CNC(=O)[C@@H](NC(=O)[C@H](CC(C)C)[C@H](O)C(=O)NO)C(C)(C)C [SJ000772411-1]									-4.036	2.038	14.63	-0.5084	-1.756	1.691	-3.077	2.673
CNC(=O)[C@@H](NC(=O)[C@H](CC(C)C)[C@H](O)C(=O)NO)C(C)(C)C [SJ000772411-2]									3.499	3.1	28.21	4.087	3.256	2.823	5.663	10.77
COC(=O)[C@H](CC(C)C)NC(=O)[C@@H](O)[C@H](N)Cc1ccccc1 [SJ000772416-1, BESTATIN METHYL ESTER]	8.922	22.26	5.118	3.275	2.851	3.75	1.43	-1.654								
CC(C)[C@@H]1C(=O)N(S(C)(=O)=O)[C@@H]2CCN(C(=O)/C=C/CN3CCCCC3)[C@H]21 [SJ000772418-1, GW 311616 HYDROCHLORIDE]	3.043	-1.402	12.76	1.212	4.399	0.5681	-2.728	-2.354								
C=CCNC(=O)c1cc([N+](=O)[O-])cc2c(=O)[nH]c(Nc3ccc(Cl)c(Cl)c3)nc12 [SJ000772422-1, AZ 10417808]	3.564	-1.321	0.7864	3.044	0.1501	0.702	-3.629	0.5205								
COC[C@@H](NC(=O)[C@@H](NC(=O)[C@H](CCCc1ccc(-c2ccccc2)c(C)c1)CC(=O)O)C(C)(C)C)c1ccccc1 [SJ000772423-1, UK 370106]	2.629	2.263	6.021	2.4	4.79	0.2215	-0.5196	2.493								
NC(N)=NCCS[C@@H](CC(=O)O)C(=O)O [SJ000772425-1, GEMSA]	3.627	0.2934	-3.397	1.501	-0.9686	0.5506	-1.464	0.138								
COc1cc(C(C)C)c2c(c1)S(=O)(=O)N(COc1cc(=O)n3cccc(OCCN4CCCCC4)c3n1)C2=O [SJ000772427-1, SSR 69071]	4.165	2.526	-3.004	1.75	3.665	-0.6502	0.212	1.802								
CC(C)C[C@H](N)[C@](O)(Cc1cnc[nH]1)C(=O)O [SJ000772431-1, LEUHISTIN]	3.279	2.882	4.998	1.038	1.294	5.093	-1.024	0.702								
O=C(O)C(Cc1ccc2c(c1)oc1ccccc12)NCP(=O)(O)O (stereo not drawn) [SJ000772433-1, CGS 35066]	3.69	0.4141	0.3778	2.079	-0.6949	5.201	-1.634	2.239								
C[C@H](NC(=O)Cc1cc(F)cc(F)c1)C(=O)N[C@H](C(=O)OC(C)(C)C)c1ccccc1 [SJ000772434-1, DAPT | DAPT (GSI-IX)]	5.48	0.2025	2.669	1.132	0.2641	5.016	-0.675	2.225								
NC(CCC(=O)NOC(=O)c1ccccc1)C(=O)N1CCCC1 (stereo not drawn) [SJ000773150-1]	-0.09979	-0.8595	-3.643	3.014	-1.088	1.208	-2.389	1.337								
Cc1c[nH]c(/C=C2\C(=O)Nc3ccccc32)c1CCC(=O)O [SJ000773151-1, SU 5402 |]	45.76	-1.966	8.965	7.079	2.629	-0.6671	3.453	64.04								
